Source: US7569208B2, “Diagnostic agents for pancreatic exocrine function” (Tokyo Gas Company Limited, priority 1999, dated 2009)

How the values were obtained:
[1] = Solubility / precipitation of phenylalanine in distilled water with or without hydroxypropyl-β-cyclodextrin; type: physicochemical; conditions: 299 mg of [1-^13C]-phenylalanine in 5 ml distilled water, dissolved at 85° C., cooled to 25° C.
From the text: The increase of solubility of phenylalanine in the presence of hydroxypropyl-β-cyclodextrin confirmed the formation of (1-^13C]-phenylalanine/hydroxypropyl-β-cyclodextrin inclusion complex.

[2] = at 25° C.; cited from earlier work
[3] = system: pancreatic exocrine function; test: 13C breath test after oral administration in olive oil to chronic pancreatitis and control rats (GC-MS); type: in vivo, rat
Procedure: A ^13C-FDL breath test was carried out wherein ^13C-FDL was orally administered to chronic pancreatitis and control rats and the time course of the ^13C concentration in the exhaled CO2 after the administration was measured.
(§1) According to Mundlos et al. (Mundlos et al., Pancreas, 1:29 (1986)), the chronic pancreatitis rats were prepared by injecting oleic acid into the pancreatic duct of Wistar male rats of 5 weeks old and kept for 3 weeks. Rats in which midline incision was made on the abdomen were used as the control.
The chronic pancreatitis and control rats of 8 weeks old, which fasted overnight, were fixed without anesthesia in a rat holder for a microwave irradiation apparatus. The breath was collected at a rate of about 100 to 300 ml/min using a CO2 meter (CAPSTER-100) to monitor the CO2 concentration. […]
The breath was taken out as a sample immediately before the administration and at every hour for 5 hours after the administration and the ^13C concentration in the exhaled CO2 was analyzed by a gas chromatography-mass spectrometer (GC-MS). The analytic conditions for GC-MS are as follows. The CO2 concentration in the collected breath was held at 3±0.5%. GC-MS conditions:
Assuming that the isotopic abundance of oxygen is the same as that which is naturally occurring, ^13C concentration was calculated from the peak areas of the ions m/z=45 and 46 according to the following equation: […]
Δ^13C (‰) was calculated from the ^13C concentration in the exhaled CO2 at each time point (^13C tmin) and the ^13C concentration in standard CO2 (^13C std) according to the following equation: Δ^13C (‰)=[(^13C tmin−^13C 0 min)/^13C std]×1000 12.2 Results

[4] = system: pancreatic exocrine function; test: 13C breath test after oral administration to oleic acid-induced chronic pancreatitis and control rats (13CO2 analyzer); type: in vivo, rat; conditions: for Δ^13C (‰) value in exhaled CO2: 75 mg/kg oral, at 10 minutes
Procedure: ^13C-labeled cyclodextrin breath test was carried out wherein ^13C-labeled cyclodextrin prepared in Example 1 was orally administered to chronic pancreatitis and control rats and the time course of the ^13C concentration in the exhaled CO2 after the administration was measured.
as §1
The chronic pancreatitis and control rats of 8 weeks old, which fasted overnight, were fixed without anesthesia in a rat holder for a microwave irradiation apparatus. The breath was collected at a rate of about 100 to 300 ml/min using a stroke pump (Variable Stroke Pump VS-500, Shibata Kagaku Kogyo) and introduced directly to a flow cell of a ^13CO2 analyzer EX-130S (Nihon Bunko) to measure ^13C atom % and the carbon dioxide gas concentration continuously. A Perma Pure drier (MD-050-12P, Perma Pure Inc.) was set between the rat holder and the stroke pump to remove out water vapor in the breath. After the CO2 concentration was stabilized, the rat was once removed out of the rat holder and an aqueous solution of ^13C-labeled cyclodextrin was administered (75 mg/kg, 5 ml/kg) into the stomach using an oral sonde.
Δ^13C (‰) was calculated from the ^13C concentration in the exhaled CO2 at each time point (^13C tmin) and the ^13C concentration in standard CO2 (^13C std) according to the following equation: Δ^13C (‰)=[(^13C tmin−^13C 0 min)/^13C std]×1000

For `N[C@@H](C[13c]1ccccc1)C(=O)O` [(1-^13C]-phenylalanine, [1-^13C]-phenylalanine], which “precipitation of phenylalanine when the solution was allowed to cool to 25° C.” value [1] is on record?
The value was “phenylalanine was precipitated”.

For `N[C@@H](Cc1ccccc1)C(=O)O` [phenylalanine], which solubility [2] is on record?
The solubility was 148 mg/5 ml.

Which “Δ^13C (‰) values of chronic pancreatitis rats compared with control rats” value ([3]; 160 mg/kg oral in olive oil, at each time point for 5 hours (FIG. 10)) does the source give for ^13C-dilaurylfluorescein [^13C-FDL] here?
Its value is “smaller than the control rats”.

What about the “Δ^13C (‰) value in exhaled CO2” value ([3]; chronic pancreatitis rats, 160 mg/kg oral in olive oil, at 3 hours) of the same compound?
The value was 42.0±21.3 ‰.

And the “Δ^13C (‰) value in exhaled CO2” value ([3]; chronic pancreatitis rats, 160 mg/kg oral in olive oil, at 5 hours)?
The value was 95.4±47.1 ‰.

What about the “Δ^13C (‰) value in exhaled CO2” value ([3]; control rats, 160 mg/kg oral in olive oil, at 3 hours) of the same compound?
Its value is 153.3±22.8 ‰.

What about the “Δ^13C (‰) value in exhaled CO2” value ([3]; control rats, 160 mg/kg oral in olive oil, at 5 hours) of the same compound?
Its value is 236.3±12.4 ‰.

Which results are given for ^13C-dioctanoylfluorescein [^13C-FDO]?
Δ^13C (‰) values of chronic pancreatitis rats compared with control rats ([3]; 200 mg/kg oral in olive oil, at each time point for 5 hours (FIG. 11)): smaller than the control rats; Δ^13C (‰) value in exhaled CO2 ([3]; chronic pancreatitis rats, 200 mg/kg oral in olive oil, at 1 hour): 2.7±3.8 ‰; Δ^13C (‰) value in exhaled CO2 ([3]; chronic pancreatitis rats, 200 mg/kg oral in olive oil, at 3 hours): 18.4±12.1 ‰; Δ^13C (‰) value in exhaled CO2 ([3]; chronic pancreatitis rats, 200 mg/kg oral in olive oil, at 4 hours): 15.2±13.4 ‰; Δ^13C (‰) value in exhaled CO2 ([3]; chronic pancreatitis rats, 200 mg/kg oral in olive oil, at 5 hours): 20.6±11.2 ‰; Δ^13C (‰) value in exhaled CO2 ([3]; control rats, 200 mg/kg oral in olive oil, at 1 hour): 46.3±11.5 ‰; Δ^13C (‰) value in exhaled CO2 ([3]; control rats, 200 mg/kg oral in olive oil, at 3 hours): 60.6±12.7 ‰; Δ^13C (‰) value in exhaled CO2 ([3]; control rats, 200 mg/kg oral in olive oil, at 4 hours): 88.7±8.2 ‰; Δ^13C (‰) value in exhaled CO2 ([3]; control rats, 200 mg/kg oral in olive oil, at 5 hours): 73.6±14.1 ‰

Which results are given for “galactosyl ^13C-maltohexaose [galactosyl ^13C-labeled maltohexaose]”?
Δ^13C (‰) value in exhaled CO2 ([4]; chronic pancreatitis rats): 18.9 ± 17 ‰; Δ^13C (‰) value in exhaled CO2 ([4]; control rats): 95.6 ± 42.4 ‰; increase in Δ^13C (‰) value of chronic pancreatitis rats compared with control rats ([4]; galactosyl ^13C-maltohexaose 75 mg/kg oral, for 30 minutes (FIG. 4)): smaller than the control rats
